Tests used:
SH-SY5Y cells [1] = experiment: MPP+-induced cellular death model, apoptosis by caspase-3/7 assay; assay type: cell-based, human; conditions: for Caspase 3/7 activity: MPP+ + (3 mM), 3 h
Protocol: (§1) SH-SY5Y cells were spread on a 96-well plate (70,000 cell/well in 100 μl DMEM low glucose 10% fetal bovine serum) for overnight culturing, from which the culture medium was removed with an aspirator. Then, DMEM without serum was added at 50 μl/well. […] 2 hours later, DMEM without serum containing 18 mM MPP^+ was added at 20 μl/well. (MPP^+ to a final 3 mM concentration.) (For control, DMEM without serum alone was added.)
(§2) 3 hours later, the caspase-3/7 activity was assayed with Apo-One homogenous Caspase-3/7 assay kit (Promega).

SH-SY5Y cells [2] = experiment: MPP+-induced cellular death model, viable cells by MTT assay; assay type: cell-based, human; conditions: for MTT assay A490: MPP+ + (3 mM), 24 h
Protocol: as §1, with “concentration)” for “concentration.)”, “(For a” for “(For”, “added).” for “added.)”
24 hours later, cell growth activity was assayed by measuring the absorbance at 490 nm, using Celltiter 96 aqueous one solution cell proliferation assay kit (Promega).
In the assay system, MPP^+ as an MPTP metabolite was added to a neuroblastoma SH-SY5Y, to inhibit the mitochondrial complex I to cause the generation of active oxygen and the inhibition of ATP synthesis, to induce cellular death. It is said that in the murine MPTP model commonly used as a model of Parkinson's disease, MPTP passing through the blood brain barrier is metabolized into MPP^+, which exerts toxicity specific to murine nigra cell to induce nerve detachment. Therefore, the assay system can be said as an in vitro assay system mimicking the murine MPTP model.

SH-SY5Y cells [3] = experiment: MPP+-induced cellular death model, dead cells by LDH assay; assay type: cell-based, human; conditions: for LDH release A490: MPP+ + (3 mM), 24 h
Protocol: as §1, with “concentration)” for “concentration.)”, “(For a” for “(For”
24 hours later, the dead cell count was calculated on the basis of the LDH activity assayed with a cytotoxicity detection kit (Roche). […] The results reveal that the PPARδ agonists are effective on the suppression of MPP^+-induced cellular death.

SH-SY5Y cells [4] = experiment: Thapsigargin-induced cellular death model, apoptosis by caspase-3/7 assay; assay type: cell-based, human; conditions: for Caspase 3/7 activity: thapsigargin + (100 nM), 3 h
SH-SY5Y cells [5] = experiment: Staurosporine-induced cellular death model, apoptosis by caspase-3/7 assay; assay type: cell-based, human; conditions: for Caspase 3/7 activity: staurosporine + (150 nM), 3 h
Protocol: as §1, with “900 nM staurosporine” for “18 mM MPP^+”, “(Staurosporine” for “(MPP^+”, “150 nM concentration)” for “3 mM concentration.)”, “(For a” for “(For”, “added).” for “added.)”
as §2

SH-SY5Y cells [6] = experiment: Staurosporine-induced cellular death model, dead cells by LDH assay; assay type: cell-based, human; conditions: staurosporine + (150 nM), 24 h
Protocol: SH-SY5Y cells were plated on a 96-well plate (70,000 cell/well in 100 μl DMEM low glucose 10% fetal bovine serum) for overnight culturing, from which the culture medium was removed with an aspirator. Then, DMEM without serum was added at 50 μl/well. […] 2 hours later, DMEM without serum containing 900 nM staurosporine was added at 20 μl/well. (Staurosporine to a final 150 nM concentration) (For a control, DMEM without serum alone was added.) 24 hours later, LDH activity was assayed by measuring the absorbance at 490 nm, using Cytotoxicity detection kit (Roche). […] An apparent correlation is observed with the results of viable cells as determined by the MTT assay in Example 9.

SH-SY5Y cells [7] = experiment: Thapsigargin-induced cellular death model, viable cells by MTT assay; assay type: cell-based, human; conditions: for MTT assay A490: thapsigargin + (100 nM), 24 h
Protocol: SH-SY5Y cells were plated on a 96-well plate (70,000 cell/well in 100 μl DMEM low glucose 10% fetal bovine serum) for overnight culturing, from which the culture medium was removed with an aspirator. Then, DMEM without serum was added at 50 μl/well. […] 2 hours later, DMEM without serum containing 600 nM thapsigargin was added at 20 μl/well. (Thapsigargin to a final 100 nM concentration) (For a control, DMEM without serum alone was added.) 24 hours later, the viable cell count was calculated from the absorbance at 490 nm, using Celltiter 96 Aqueous one solution cell proliferaion assay kit (Promega).

[8] = system: murine MPTP Parkinson's model; experiment: Murine MPTP Parkinson's model, striate body DA and metabolites; assay type: in vivo, mice; conditions: for Resumption ratio of content of DA / Resumption ratio of content of DOPAC / Resumption ratio of content of HVA / DA content per wet weight of striate body / DOPAC content per wet weight of striate body / HVA content per wet weight of striate body: MPTP +; for DA content per wet weight of striate body / DOPAC content per wet weight of striate body / HVA content per wet weight of striate body: 4 days after MPTP

For CCCc1c(OCCCOc2ccc(OCC(=O)O)cc2)ccc(C(C)=O)c1O [L-165041, 4-[3-[2-propyl-3-hydroxy-4-acetyl]phenoxy]propyloxyphenoxy acetic acid], the “suppression of caspase-3/7 activity (in words)” value (SH-SY5Y cells [1]; SH-SY5Y, MPP+) was “suppress the activity of caspase-3/7 in a concentration-dependent manner”, the “Caspase 3/7 activity” value (SH-SY5Y cells [1]; compound 0.1 μM) was 1430206 ± 30804 RFLU and the “Caspase 3/7 activity” value (SH-SY5Y cells [1]; compound 1 μM) was 1168920 ± 30554 RFLU. For the same molecule, the “Caspase 3/7 activity” value (SH-SY5Y cells [1]; compound 10 μM) was 646736 ± 26366 RFLU, the “Caspase 3/7 activity” value (SH-SY5Y cells [1]; compound 100 μM) was 572152 ± 33695 RFLU and the “suppression of MPP+-induced cellular death (in words)” value (SH-SY5Y cells [2]; SH-SY5Y, MPP+) was “suppress cellular death induced by MPP^+ in a concentration-dependent manner”. The “MTT assay A490” value (SH-SY5Y cells [2]; compound 0.1 μM) was 0.3744 ± 0.0067, the “MTT assay A490” value (SH-SY5Y cells [2]; compound 1 μM) was 0.3935 ± 0.0083 and the “MTT assay A490” value (SH-SY5Y cells [2]; compound 10 μM) was 0.4799 ± 0.0078. The “MTT assay A490” value (SH-SY5Y cells [2]; compound 100 μM) was 0.3181 ± 0.0122, the “LDH release A490” value (SH-SY5Y cells [3]; compound 0.1 μM) was 0.3980 ± 0.0141 and the “LDH release A490” value (SH-SY5Y cells [3]; compound 1 μM) was 0.3874 ± 0.0120. For the same molecule, the “LDH release A490” value (SH-SY5Y cells [3]; compound 10 μM) was 0.3133 ± 0.0024, the “LDH release A490” value (SH-SY5Y cells [3]; compound 100 μM) was 0.6709 ± 0.0093 and the “cytotoxicity (in words)” value (SH-SY5Y cells [3]; concentration of 100 μM, MPP+ model) was “exerted cytotoxicity”. The “suppression of caspase-3/7 activity (in words)” value (SH-SY5Y cells [4]; SH-SY5Y, thapsigargin) was “suppress the activity of caspase-3/7”, the “Caspase 3/7 activity” value (SH-SY5Y cells [4]; compound 0.1 μM) was 732549 ± 24888 RFLU and the “Caspase 3/7 activity” value (SH-SY5Y cells [4]; compound 1 μM) was 652843 ± 8229 RFLU. The “Caspase 3/7 activity” value (SH-SY5Y cells [4]; compound 10 μM) was 554233 ± 23703 RFLU, the “Caspase 3/7 activity” value (SH-SY5Y cells [4]; compound 100 μM) was 242770 ± 5414 RFLU and the “suppression of caspase-3/7 activity (in words)” value (SH-SY5Y cells [5]; SH-SY5Y, staurosporine) was “suppress the activity of caspase-3/7”. The “Caspase 3/7 activity” value (SH-SY5Y cells [5]; compound 0.1 μM) was 535404 ± 23301 RFLU, the “Caspase 3/7 activity” value (SH-SY5Y cells [5]; compound 1 μM) was 520732 ± 17273 RFLU and the “Caspase 3/7 activity” value (SH-SY5Y cells [5]; compound 10 μM) was 483017 ± 27259 RFLU. For the same molecule, the “LDH release A490” value (SH-SY5Y cells [6]; compound 0.1 μM) was 0.5330 ± 0.0298, the “LDH release A490” value (SH-SY5Y cells [6]; compound 1 μM) was 0.5230 ± 0.0160 and the “LDH release A490” value (SH-SY5Y cells [6]; compound 10 μM) was 0.5319 ± 0.0267. The “suppression of thapsigargin-induced cellular death (in words)” value (SH-SY5Y cells [7]; SH-SY5Y, thapsigargin) was “suppressed cellular death induced by thapsigargin (TG) in a concentration-dependent manner”, the “MTT assay A490” value (SH-SY5Y cells [7]; compound 0.1 μM) was 0.2176 ± 0.0036 and the “MTT assay A490” value (SH-SY5Y cells [7]; compound 1 μM) was 0.2158 ± 0.0034. The “MTT assay A490” value (SH-SY5Y cells [7]; compound 10 μM) was 0.2436 ± 0.0015, the “MTT assay A490” value (SH-SY5Y cells [7]; compound 100 μM) was 0.4405 ± 0.0065 and the “Resumption ratio of content of DA” value ([8]; 12 μg/head/day) was 0.42 ± 10.20%. The “Resumption ratio of content of DOPAC” value ([8]; 12 μg/head/day) was −1.45 ± 10.89%, the “Resumption ratio of content of HVA” value ([8]; 12 μg/head/day) was −4.65 ± 12.88% and the “DA content per wet weight of striate body” value ([8]; 12 μg/head/day) was 5.06 ± 1.08 ng/mg tissue. The “DOPAC content per wet weight of striate body” value ([8]; 12 μg/head/day) was 0.28 ± 0.05 ng/mg tissues, the “HVA content per wet weight of striate body” value ([8]; 12 μg/head/day) was 0.66 ± 0.08 ng/mg tissue and the “Resumption ratio of content of DA” value ([8]; 120 μg/head/day) was 26.42 ± 8.83 %. For the same molecule, the “Resumption ratio of content of DOPAC” value ([8]; 120 μg/head/day) was 32.22 ± 15.41%, the “Resumption ratio of content of HVA” value ([8]; 120 μg/head/day) was 36.58 ± 16.68% and the “DA content per wet weight of striate body” value ([8]; 120 μg/head/day) was 7.81 ± 0.93 ng/mg tissue. For the same molecule, the “DOPAC content per wet weight of striate body” value ([8]; 120 μg/head/day) was 0.44 ± 0.07 ng/mg tissues, the “HVA content per wet weight of striate body” value ([8]; 120 μg/head/day) was 0.91 ± 0.10 ng/mg tissue and the “action of suppressing the decrease of the contents of DA, DOPAC and HVA (in words)” value ([8]; dose of 12 μg/head/day) was “not so greatly observed”. The “action of suppressing the decrease of the contents of DA, DOPAC and HVA (in words)” value ([8]; dose of 120 μg/head/day) was “greatly observed”.

From US20070037882A1, “Remedy for cerebral neurodegenerative diseases using ppar agonist” (Astellas Pharma Inc., priority 2003, published 2007)
